Read-outs that look alike come from different tables or passages of the source.
Experiments:
[1] = molecular target: T1, cytoplasmic domain of the human CSF-1R (Homo sapiens, UniProt P07333); experiment: In vitro kinase assay for colony stimulating factor-1 receptor (AlphaScreen); type: biochemical; settings: tested at about 1 μM, read-out: CSF-1R percent inhibition
T1 construct: Recombinant protein corresponding to the cytoplasmic domain of the human CSF-1R; purchased Invitrogen Corporation, Carlsbad, Calif; PV3249
T1 sequence (P07333 539-972 limits assumed): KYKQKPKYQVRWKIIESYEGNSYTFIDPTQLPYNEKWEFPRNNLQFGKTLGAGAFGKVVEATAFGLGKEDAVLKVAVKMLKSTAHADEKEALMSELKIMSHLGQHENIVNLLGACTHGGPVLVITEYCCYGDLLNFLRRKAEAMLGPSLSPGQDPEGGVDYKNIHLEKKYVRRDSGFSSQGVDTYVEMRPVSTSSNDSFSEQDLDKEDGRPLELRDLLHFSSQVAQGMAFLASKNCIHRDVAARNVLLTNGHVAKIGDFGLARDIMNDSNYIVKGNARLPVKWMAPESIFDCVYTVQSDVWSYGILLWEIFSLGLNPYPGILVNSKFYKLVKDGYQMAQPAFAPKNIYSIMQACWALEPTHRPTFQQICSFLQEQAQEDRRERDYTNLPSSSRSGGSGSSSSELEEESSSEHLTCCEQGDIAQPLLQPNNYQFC
How it was run: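 Kinase reaction used 4 nM recombinant cytoplasmic domain at 1 μM ATP in 50 mM Hepes pH 7.5 with 5 mM MgCl2, 10 mM MnCl2, 0.1% BSA, 1.0 mM DTT and 0.01% Tween 80. Compounds were serially diluted 3-fold from 25 μM. Phosphopeptide was detected by AlphaScreen, PT66 anti-phosphotyrosine acceptor plus streptavidin donor beads, read after overnight incubation.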

[2] = system: MNFS60 (murine AML cells); experiment: Cell viability assay in MCSF dependent MNFS60 cells (Cell Titer Glo); type: cell-based; settings: Mus musculus, tested at about 1 μM, read-out: M-NFS-60 CP percent inhibition
How it was run: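 Cells are cultured with 10 ng/ml MCSF and test compound for 72 hrs at 37° C. in 5% CO2. CellTiter-Glo reagent is then added to gauge viable cell number, and EC50s are fitted from triplicates.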

[3] = molecular target: T2, full-length human CSF-1R receptor (Homo sapiens, UniProt P07333); experiment: In vitro inhibition of CSF-1R receptor tyrosine phosphorylation in transfected HEK293H cells stimulated with MCSF; type: cell-based; settings: HEK293-H, tested at about 1 μM; HEK293H cells; read-out: pCSF1R percent inhibition
T2 construct: transfected with the full-length human CSF-1R receptor cloned in house; expressed in transfected cells; host or cells: HEK293H (Invitrogen Cat. #11631017)
Procedure: The lysate was then transferred to total CSF-1R antibody coated 96-well plates that had already been blocked with 3% Blocker A from Mesoscale discovery (MSD) for 2 hours and washed afterwards. Lysates were incubated overnight at 4° C. and the plates were then washed 4× with MSD Tris Wash Buffer. […] The plates were read on the Sector 6000 instrument (MSD). Raw data was imported in Abase and EC50s calculated with XL-fit data analysis software.

kinase domain of PDGFRβ = molecular target: T3, kinase domain of PDGFRβ (Homo sapiens, UniProt P09619); experiment: Inhibition of PDGFRb kinase signaling in an in vitro biochemical assay (alphascreen); settings: tested at about 1 μM, read-out: PDGFRβ percent inhibition
T3 construct: The kinase domain of PDGFRβ was assayed in 50 mM Hepes; purchased Invitrogen P3082

kinase domain of cKIT = molecular target: T4, kinase domain of cKIT (Homo sapiens, UniProt P10721); experiment: Inhibition of cKIT kinase signaling in an in vitro biochemical assay (alphascreen); settings: tested at about 1 μM, read-out: cKit percent inhibition
T4 construct: The kinase domain of cKIT was assayed in 50 mM Hepes; purchased Upstate 14-559
T4 sequence (P10721 589-937 limits assumed): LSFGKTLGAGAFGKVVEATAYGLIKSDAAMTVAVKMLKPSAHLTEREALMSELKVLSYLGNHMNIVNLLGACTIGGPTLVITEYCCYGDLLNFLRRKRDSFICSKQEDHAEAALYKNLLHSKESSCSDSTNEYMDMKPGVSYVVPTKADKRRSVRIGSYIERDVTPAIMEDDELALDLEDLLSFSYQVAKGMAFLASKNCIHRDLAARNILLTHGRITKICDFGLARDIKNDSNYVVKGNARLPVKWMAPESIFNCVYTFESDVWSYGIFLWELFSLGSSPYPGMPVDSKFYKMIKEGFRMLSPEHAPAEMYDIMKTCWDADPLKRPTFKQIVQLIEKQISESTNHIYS

T3 sequence (P09619 600-962 limits assumed): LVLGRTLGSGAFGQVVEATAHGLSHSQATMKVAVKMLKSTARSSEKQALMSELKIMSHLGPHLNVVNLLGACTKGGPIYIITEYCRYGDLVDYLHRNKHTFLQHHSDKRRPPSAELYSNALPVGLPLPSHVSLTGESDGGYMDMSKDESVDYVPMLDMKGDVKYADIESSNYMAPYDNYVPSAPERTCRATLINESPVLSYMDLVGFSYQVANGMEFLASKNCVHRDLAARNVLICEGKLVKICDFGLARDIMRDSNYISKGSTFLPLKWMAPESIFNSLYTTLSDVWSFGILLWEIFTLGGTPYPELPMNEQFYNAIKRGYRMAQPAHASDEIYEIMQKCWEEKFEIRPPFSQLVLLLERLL
T2 sequence (P07333 20-972): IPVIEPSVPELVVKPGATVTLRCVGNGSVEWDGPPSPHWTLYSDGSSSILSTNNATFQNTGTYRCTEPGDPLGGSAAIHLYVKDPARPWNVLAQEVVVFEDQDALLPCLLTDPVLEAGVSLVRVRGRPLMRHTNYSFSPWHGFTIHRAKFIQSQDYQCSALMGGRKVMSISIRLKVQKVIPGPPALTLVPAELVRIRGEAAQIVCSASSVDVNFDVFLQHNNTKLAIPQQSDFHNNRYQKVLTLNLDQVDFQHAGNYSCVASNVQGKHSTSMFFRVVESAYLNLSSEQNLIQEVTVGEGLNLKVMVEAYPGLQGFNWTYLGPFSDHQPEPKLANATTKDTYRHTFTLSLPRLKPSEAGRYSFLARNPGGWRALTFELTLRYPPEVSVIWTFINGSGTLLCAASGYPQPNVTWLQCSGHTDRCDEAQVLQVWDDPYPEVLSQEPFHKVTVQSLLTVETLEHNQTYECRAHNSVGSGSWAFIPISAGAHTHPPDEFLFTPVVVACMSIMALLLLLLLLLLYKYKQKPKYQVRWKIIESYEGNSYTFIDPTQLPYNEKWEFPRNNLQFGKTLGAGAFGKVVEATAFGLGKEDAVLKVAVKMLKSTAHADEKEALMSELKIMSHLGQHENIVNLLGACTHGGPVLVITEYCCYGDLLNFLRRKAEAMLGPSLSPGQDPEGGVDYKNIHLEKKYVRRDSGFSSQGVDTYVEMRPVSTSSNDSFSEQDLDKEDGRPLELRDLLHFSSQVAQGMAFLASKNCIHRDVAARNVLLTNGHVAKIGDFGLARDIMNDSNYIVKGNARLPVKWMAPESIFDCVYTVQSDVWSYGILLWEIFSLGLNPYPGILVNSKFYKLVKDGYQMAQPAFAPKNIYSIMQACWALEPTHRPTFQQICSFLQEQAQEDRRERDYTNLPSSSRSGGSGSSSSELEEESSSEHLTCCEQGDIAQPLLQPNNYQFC

inhibition at 1 µM [1] [%]	inhibition at 1 µM [3] [%]	inhibition at 1 µM (kinase domain of PDGFRβ) [%]	inhibition at 1 µM (kinase domain of cKIT) [%]	inhibition at 1 µM ([1]; compounds of Table 3) [%]	inhibition at 1 µM (kinase domain of cKIT; compounds of Table 3) [%]	inhibition at 1 µM (kinase domain of PDGFRβ; compounds of Table 3) [%]	SMILES	inhibition at 1 µM ([2]; MNFS60 cells) [%]	inhibition at 1 µM ([2]; compounds of Table 3) [%]	inhibition at 1 µM ([2]; MCSF dependent MNFS60 cells) [%]
99	93	–	–	–	–	–	CNC(=O)c1cc(Oc2ccc3nc(Nc4ccc5c(c4)OCCO5)oc3c2)ccn1 [Compound 5, 4-[2-(2,3-Dihydro-benzo-[1,4]dioxin-6-ylamino)-benzooxazol-6-yloxy]-pyridin-2-carboxylic acid methylamide]	100	–	–
98	35	7	–	–	–	–	CNC(=O)c1cc(Oc2ccc3nc(Nc4ccccc4CN4CCOCC4)oc3c2)ccn1 [Compound 25, 4-[2-(2-Morpholin-4-ylmethyl-phenylamino)-benzooxazol-6-yloxy]-pyridine-2-carboxylic acid methylamide]	42	–	–
100	80	–	–	–	–	–	CNC(=O)c1cc(Oc2ccc3nc(N[C@H](C)c4ccccc4)oc3c2)ccn1 [Compound 2, 4-[2-((R)-1-Phenyl-ethylamino)-benzooxazol-6-yloxy]-pyridine-2-carboxylic acid methylamide]	63	–	–
99	71	85	–	–	–	–	COc1cc2nccc(Oc3ccc4nc(N[C@H](C)c5ccccc5)oc4c3)c2cc1OC [Compound 14, [6-(6,7-Dimethoxy-quinolin-4-yloxy)-benzooxazol-2-yl]-((R)-1-phenyl-ethyl)-amine]	56	–	–
99	81	20	–	–	–	–	CNC(=O)c1cc(Oc2ccc3nc(NCc4ccccc4F)oc3c2)ccn1 [Compound 16, 4-[2-(2-Fluoro-benzylamino)-benzooxazol-6-yloxy]-pyridin-2-carboxylic acid methylamide]	25	–	–
100	94	30	–	–	–	–	CNC(=O)c1cc(Oc2ccc3nc(NCc4ccccc4)oc3c2)ccn1 [Compound 41, 4-(2-Benzylamino-benzooxazol-6-yloxy)-pyridine-2-carboxylic acid methylamide]	100	–	–
100	91	–	–	–	–	–	COc1cc2nccc(Oc3ccc4nc(Nc5ccc6c(c5)OCCO6)oc4c3)c2cc1OC [Compound 4, (2,3-Dihydro-benzo[1,4]dioxin-6-yl)-[6-(6,7-dimethoxy-quinolin-4-yloxy)-benzooxazol-2-yl]-amine]	100	–	–
94	21	–	–	–	–	–	CNC(=O)c1cc(Oc2ccc3nc(N[C@@H](C)c4ccccc4)oc3c2)ccn1 [Compound 7, 4-[2-((S)-1-Phenyl-ethylamino)-benzooxazol-6-yloxy]-pyridin-2-carboxylic acid methylamide]	17	–	–
100	98	–	–	–	–	–	CNC(=O)c1cc(Oc2ccc3nc(N[C@H]4CCCC[C@@H]4O)sc3c2)ccn1 [Compound 137, 4-[2-((1S,2S)-2-Hydroxy-cyclohexylamino)-benzothiazol-6-yloxy]-pyridine-2-carboxylic acid methylamide]	100	–	–
99	75	–	–	–	–	–	CNC(=O)c1cc(Oc2ccc3nc(NCc4ccc(Cl)cc4Cl)oc3c2)ccn1 [Compound 9, 4-[2-(2,4-Dichloro-benzylamino)-benzooxazol-6-yloxy]-pyridin-2-carboxylic acid methylamide]	58	–	–
97	–	3	35	–	–	–	CNC(=O)c1cc(Oc2ccc3nc(NCc4ccncc4)oc3c2)ccn1 [Compound 57, 4-{2-[(Pyridin-4-ylmethyl)-amino]-benzooxazol-6-yloxy}-pyridine-2-carboxylic acid methylamide]	35	–	–
100	–	94	0	–	–	–	CNC(=O)c1cc(Oc2ccc3nc(NCc4ccc(S(N)(=O)=O)cc4)sc3c2)ccn1 [Compound 161, 4-[2-(4-Sulfonamido-benzyl-amino)-benzothiazol-6-yloxy]-pyridine-2-carboxylic acid methylamide]	38	–	–
–	–	–	–	99	0	10	CNC(=O)c1cc(Oc2ccc3nc(NCC(O)COc4ccccc4)sc3c2)ccn1 (stereo not shown) [Compound 124]	–	18	–
–	–	–	–	100	29	21	CNC(=O)c1cc(Oc2ccc3nc(N[C@H](C)C(C)C)sc3c2)ccn1 [Compound 149]	–	48	–
–	–	–	–	100	90	70	CNC(=O)c1cc(Oc2ccc3nc(NCCC(C)C)sc3c2)ccn1 [Compound 130]	–	79	–
–	–	–	–	97	98	0	OC[C@H](CC1CCCCC1)Nc1nc2ccc(Oc3ccnc4ccccc34)cc2s1 [Example 250]	–	20	–
99	–	18	13	–	–	–	CN(C)CCNC(=O)c1cc(Oc2ccc3nc(NCC4CCCCC4)sc3c2)ccn1 [Compound 160, 4-(2-(cyclohexylmethyl-amino)benzothiazol-6-yloxy)-N-(2-(dimethylamino)-ethyl)pyridine-2-carboxamide]	30	–	–
97	–	91	0	–	–	–	CNC(=O)c1cc(Oc2ccc3nc(NCc4ccccc4N4CCCCC4)sc3c2)ccn1 [Compound 153, 4-[2-(2-Piperidin-1-yl-benzylamino)-benzothiazol-6-yloxy]-pyridine-2-carboxylic acid methylamide]	63	–	–
99	92	–	–	–	–	–	CNC(=O)c1cc(Oc2ccc3nc(NCc4ccccc4Cl)oc3c2)ccn1 [Compound 8, 4-[2-(2-Chloro-benzylamino)-benzooxazol-6-yloxy]-pyridin-2-carboxylic acid methylamide]	60	–	–
99	–	1	12	–	–	–	COCCNC(=O)c1cc(Oc2ccc3nc(NCC4CCCCC4)sc3c2)ccn1 [Compound 159, 4-(2-(cyclohexylmethyl-amino)benzothiazol-6-yloxy)-N-(2-methox.ylethyl)-pyridine-2-carboxamide]	17	–	–
100	–	20	16	–	–	–	CNC(=O)c1cc(Oc2ccc3nc(N[C@H]4CCC[C@@H]4O)sc3c2)ccn1 [Example 320, 4-(2-((1S,2S)-2-hydroxycyclopentylamino)benzo[d]thiazol-6-yloxy)-N-methylpicolinamide]	–	–	25
–	–	–	–	100	100	6	c1ccc2c(Oc3ccc4nc(NCCC5CCOCC5)sc4c3)ccnc2c1 [Example 252, 6-(quinolin-4-yloxy)-N-(2-(tetrahydro-2H-pyran-4-yl)ethyl)benzo[d]thiazol-2-amine]	–	81	–
–	–	–	–	100	100	80	c1ccc2c(Oc3ccc4nc(NC5CCCCCC5)sc4c3)ccnc2c1 [Example 247, N-cycloheptyl-6-(quinolin-4-yloxy)benzo[d]thiazol-2-amine]	–	100	–

— patent publication US8173689B2 (Novartis AG, priority 2006, dated 2012)
